Source: the supplement of paper PMC4932681

Assays:
[1] = tested on: ZR-75-1; assay: drug sensitivity score (DSS) (DSS (dimensionless)); higher = more sensitive; extreme values may be limits of the assay; conditions: 72 h
Description: (§1)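 FIMM FO2B library drugs were tested at 5 concentrations (10,000-fold range) for 72 h, with CellTiter-Glo viability normalised to DMSO and benzethonium chloride controls. The Drug Sensitivity Score (DSS) is computed from the fitted logistic dose-response curve (area-based; 0 = inactive). Resistant lines and the 'in 1µM tamoxifen' arms were tested in 1 µM 4-OH-tamoxifen.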

[2] = tested on: T-47D Tam1; assay: as above; conditions: 4-OH-tamoxifen in medium 1 µM; 72 h
Description: as §1

[3] = tested on: ZR-75-1 Tam1; assay: as above; conditions: 4-OH-tamoxifen in medium 1 µM; 72 h
Description: as §1

[4] = tested on: MCF-7; assay: as above; conditions: 72 h
Description: as §1

[5] = tested on: MCF-7 Tam1; assay: as above; conditions: 4-OH-tamoxifen in medium 1 µM; 72 h
Description: as §1

[6] = tested on: T-47D Tam2; assay: as above; conditions: 4-OH-tamoxifen in medium 1 µM; 72 h
Description: as §1

[7] = tested on: BT-474; assay: as above; conditions: 72 h
Description: as §1

[8] = tested on: ZR-75-1 Tam2; assay: as above; conditions: 4-OH-tamoxifen in medium 1 µM; 72 h
Description: as §1

[9] = tested on: BT-474 Tam1; assay: as above; conditions: 4-OH-tamoxifen in medium 1 µM; 72 h
Description: as §1

[10] = tested on: BT-474 Tam2; assay: as above; conditions: 4-OH-tamoxifen in medium 1 µM; 72 h
Description: as §1

[11] = tested on: T-47D; assay: as above; conditions: 72 h
Description: as §1

[12] = tested on: ZR-75-1; assay: relative IC50 (midpoint of fitted logistic curve, plateau may be below 50% inhibition; CellTiter-Glo viability); higher = less potent; conditions: 72 h
Description: (§2)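 FIMM FO2B library drugs were plated at 5 concentrations spanning a 10,000-fold range in 384-well plates. Cells were incubated for 72 h at 37 °C and viability was read by CellTiter-Glo, normalised to DMSO (0% inhibition) and 100 µM benzethonium chloride (100% inhibition). IC50 values come from logistic dose-response fits (Breeze pipeline). Tamoxifen-resistant lines and the 'in 1µM tamoxifen' parental arms were tested in medium with 1 µM 4-OH-tamoxifen.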

[13] = tested on: ZR-75-1 Tam1; assay: as above; conditions: 4-OH-tamoxifen in medium 1 µM; 72 h
Description: as §2

[14] = tested on: MCF-7 Tam1; assay: as above; conditions: 4-OH-tamoxifen in medium 1 µM; 72 h
Description: as §2

[15] = tested on: BT-474; assay: as above; conditions: 72 h
Description: as §2

[16] = tested on: ZR-75-1 Tam2; assay: as above; conditions: 4-OH-tamoxifen in medium 1 µM; 72 h
Description: as §2

[17] = tested on: T-47D; assay: as above; conditions: 72 h
Description: as §2

[18] = tested on: MCF-7; assay: as above; conditions: 72 h
Description: as §2

[19] = tested on: BT-474 Tam1; assay: as above; conditions: 4-OH-tamoxifen in medium 1 µM; 72 h
Description: as §2

[20] = tested on: BT-474 Tam2; assay: as above; conditions: 4-OH-tamoxifen in medium 1 µM; 72 h
Description: as §2

[21] = tested on: T-47D Tam1; assay: as above; conditions: 4-OH-tamoxifen in medium 1 µM; 72 h
Description: as §2

SMILES	relative IC50 [14]	relative IC50 ([15]; 4-OH-tamoxifen in medium 0 µM)	relative IC50 ([15]; 4-OH-tamoxifen in medium 1 µM)	relative IC50 ([17]; 4-OH-tamoxifen in medium 0 µM)	relative IC50 ([17]; 4-OH-tamoxifen in medium 1 µM)	relative IC50 ([18]; 4-OH-tamoxifen in medium 0 µM)	relative IC50 ([18]; 4-OH-tamoxifen in medium 1 µM)	relative IC50 [19]	relative IC50 [20]	drug sensitivity score ([1]; 4-OH-tamoxifen in medium 0 µM)	drug sensitivity score ([1]; 4-OH-tamoxifen in medium 1 µM)	drug sensitivity score [2]	drug sensitivity score [3]	drug sensitivity score ([4]; 4-OH-tamoxifen in medium 0 µM)	drug sensitivity score ([4]; 4-OH-tamoxifen in medium 1 µM)	drug sensitivity score [5]	drug sensitivity score [6]	drug sensitivity score ([7]; 4-OH-tamoxifen in medium 0 µM)	drug sensitivity score ([7]; 4-OH-tamoxifen in medium 1 µM)	drug sensitivity score [8]	drug sensitivity score [9]	drug sensitivity score [10]	drug sensitivity score ([11]; 4-OH-tamoxifen in medium 0 µM)	drug sensitivity score ([11]; 4-OH-tamoxifen in medium 1 µM)	relative IC50 ([12]; 4-OH-tamoxifen in medium 0 µM)	relative IC50 ([12]; 4-OH-tamoxifen in medium 1 µM)	relative IC50 [13]	relative IC50 [16]	relative IC50 [21]
Nc1ncn([C@@H]2O[C@H](CO)[C@@H](O)[C@H]2O)c(=O)n1 [Azacitidine]	> 10 µM				> 10 µM	2.96 µM	> 10 µM	> 10 µM		0.0144	0	0.8	0.0216	1.55	0	0	0.867	0.0007	0.194	0	0	0.198	0.134	0		> 10 µM		> 10 µM	
Nc1nc(Cl)nc2c1ncn2[C@H]1C[C@H](O)[C@@H](CO)O1 [Cladribine]	> 1 µM	> 1 µM	> 1 µM	> 1 µM	> 1 µM	> 1 µM	> 1 µM	> 1 µM	> 1 µM	0.0944	0.126	0.899	0.538	0	0	0	0	0	0	1.16	0	0	0	0					
Cc1sc2c(c1C)C(c1ccc(Cl)cc1)=N[C@@H](CC(=O)OC(C)(C)C)c1nnc(C)n1-2 [(+)JQ1]		0.136 µM	1.06 µM	0.345 µM		0.189 µM	0.851 µM	1.14 µM	1.12 µM	3.81	4.27	11	7.1	12.8	6.92	0.216	2.91	6.3	7.87	6.24	8.34	8.29	5.63	2.13		0.359 µM	0.238 µM	0.336 µM	0.146 µM
O=C(Nc1ccncc1)C(=O)c1cn(Cc2ccc(Cl)cc2)c2ccccc12 [Indibulin]	> 10 µM		0.474 µM	> 10 µM		0.032 µM	0.189 µM	> 10 µM		0.997	0	3.37	0.0575	8.82	6.28	0	0.194	0.543	4.58	0.106	0	3.18	0	0.395		> 10 µM			

Further lines, with some results ahead:

relative IC50 [14]	relative IC50 ([15]; 4-OH-tamoxifen in medium 0 µM)	relative IC50 ([15]; 4-OH-tamoxifen in medium 1 µM)	relative IC50 ([17]; 4-OH-tamoxifen in medium 0 µM)	relative IC50 ([17]; 4-OH-tamoxifen in medium 1 µM)	relative IC50 ([18]; 4-OH-tamoxifen in medium 0 µM)	relative IC50 ([18]; 4-OH-tamoxifen in medium 1 µM)	relative IC50 [19]	relative IC50 [20]	SMILES	drug sensitivity score ([1]; 4-OH-tamoxifen in medium 0 µM)	drug sensitivity score ([1]; 4-OH-tamoxifen in medium 1 µM)	drug sensitivity score [2]	drug sensitivity score [3]	drug sensitivity score ([4]; 4-OH-tamoxifen in medium 0 µM)	drug sensitivity score ([4]; 4-OH-tamoxifen in medium 1 µM)	drug sensitivity score [5]	drug sensitivity score [6]	drug sensitivity score ([7]; 4-OH-tamoxifen in medium 0 µM)	drug sensitivity score ([7]; 4-OH-tamoxifen in medium 1 µM)	drug sensitivity score [8]	drug sensitivity score [9]	drug sensitivity score [10]	drug sensitivity score ([11]; 4-OH-tamoxifen in medium 0 µM)	drug sensitivity score ([11]; 4-OH-tamoxifen in medium 1 µM)	relative IC50 ([12]; 4-OH-tamoxifen in medium 0 µM)	relative IC50 ([12]; 4-OH-tamoxifen in medium 1 µM)	relative IC50 [13]	relative IC50 [16]	relative IC50 [21]
> 1 µM	> 1 µM	> 1 µM	> 1 µM	> 1 µM					COc1cc2/c(=N/c3ccc(Br)cc3F)nc[nH]c2cc1OCC1CCN(C)CC1 [Vandetanib  (ZD6474, Zactima)]	0	0	0.009	0	0.65	0.193	0	1.6	0	0	0	0.381	0.605	0	0	> 1 µM	> 1 µM	> 1 µM	> 1 µM	
> 10 µM	2.5 µM	2.75 µM		> 10 µM					COc1cc2c(cc1O)CC[C@@H]1[C@@H]2CC[C@]2(C)[C@@H](O)CC[C@@H]12 [2-methoxyestradiol  (Panzem)]	1.28	0	0.761	0	3.15	0.767	0	1.01	3.19	3.93	0	0.83	0.943	0.97	0	4.13 µM	> 10 µM	> 10 µM	> 10 µM	
	> 10 µM	> 10 µM	> 10 µM		1.89 µM		> 10 µM	> 10 µM	Cn1cc(C2=Nc3cc(NC(=O)C(N)C4CCCCC4)cc4c3C2=CNNC4=O)cn1 (stereo not drawn)	0	0	4.76	0	2.19	0.0458	0	2.29	0	0	0	0	0	0	0.174	> 10 µM	> 10 µM	> 10 µM	> 10 µM	1.41 µM
> 1 µM	0.401 µM	0.223 µM	0.364 µM						O=C1NC(=O)[C@@H](c2cn3c4c(cccc24)CCC3)[C@@H]1c1c[nH]c2ccccc12 [Tivatinib (ARQ 197)]	0.524	0	0.827	0	3.81	0.0182	0	0.839	1.2	3.08	0	0.142	0	1.88	0			> 1 µM	> 1 µM	
> 1 µM			0.361 µM			0.0125 µM		> 1 µM	CC[C@@H]1C(=O)N(C)c2cnc(Nc3ccc(C(=O)N[C@H]4CC[C@H](N5CCN(CC6CC6)CC5)CC4)cc3OC)nc2N1C(C)C [Volasertib (BI 6727)]	0	0.706	2.19	1.07	2.8	7	0	2.13	1.47	7.11	0.29	0.654	0	1.16	2.85	> 1 µM				
